Assay results as given in patent US20100267697A1, “ION CHANNEL MODULATORS” (Wyeth, priority 2006, published 2010).
pIC50: −log10 of the molar value. Where two headings read alike, the source gives them in different places.

Molecular target: T1, Cav2.2 (Homo sapiens, UniProt Q00975)
T1 construct: expressed in transfected cells; host or cells: HEK-293T/17 (transient, FuGENE 6)
Test: HEK assay (whole-cell patch clamp, transiently transfected HEK-293T/17 cells, pulses P1 and P5)
Assay type: cell-based
Details: holding potential −100 mV
Method: HEK-293T/17 cells were transiently transfected in a similar manner as described in FuGENE 6 Package Insert Version 7, April 2002, Roche Applied Science, Indianapolis, Ind. The cells were plated at 2.5×10^5 cells in 2 mL in a 6-well plate, incubated for one night, and achieved a ˜30-40% confluence. In a small sterile tube, sufficient serum-free medium was added as diluent for FuGENE Transfection Reagent (Roche Applied Science, Indianapolis, Ind.) to a total volume of 100 μL. To this medium was added 3 μL of FuGENE 6 Reagent. The mixture was tapped gently to mix. To the prediluted FuGENE 6 Reagent was added 2 μg of DNA solution (0.8-2.0 μg/μL). The DNA/Fugene 6 mixture was gently pipeted to mix the contents and incubated for about 15 minutes at room temperature. The complex mixture was then added to the HEK-293T/17 cells, distributed around the well, and swirled to ensure even dispersal. The cells were returned to the incubator for 24 hours. The transfected cells were then replated at density 2.5×10^5 in a 35 mm dish with 5 glass coverslips and grew in low serum (1%) media for 24 hours. Coverslips with isolated cells were then transferred into a chamber, and calcium channel (e.g., L-type, N-type, etc.) current or other currents for counter screening were recorded from the transiently transfected HEK-293T/17 cells.
The whole-cell voltage clamp configuration of the patch clamp technique was employed to evaluate voltage-dependent calcium currents essentially as described by Thompson and Wong (1991), J. Physiol., 439: 671-689, the entire disclosure of which is herein incorporated by reference. To record calcium channel (e.g., L-type, N-type, etc.) currents for evaluation of inhibitory potency of compounds (steady-state concentration-response analysis), five pulses of 20-30 ms voltage steps to about +10 mV (the peak of the current voltage relationship) were delivered at five Hz every 30 second from a holding potential at −100 mV. In order to obtain an estimate of the degree of use-dependent block of the test compounds, IC50 values were determined at the first and fifth pulse of the train (P1 and P5, respectively, in Table 2). Compound evaluations were carried out essentially as described by Sah D. W. and Bean B. P. (1994), Mol. Pharmacol., 45:84-92, the entire disclosure of which is herein incorporated by reference.

[1] = fifth pulse (P5) of 5 Hz train, read-out: HEK Cav2.2 P5 IC50
[2] = first pulse (P1) of 5 Hz train, read-out: HEK Cav2.2 P1 IC50

T1 sequence (Q00975 whole entry): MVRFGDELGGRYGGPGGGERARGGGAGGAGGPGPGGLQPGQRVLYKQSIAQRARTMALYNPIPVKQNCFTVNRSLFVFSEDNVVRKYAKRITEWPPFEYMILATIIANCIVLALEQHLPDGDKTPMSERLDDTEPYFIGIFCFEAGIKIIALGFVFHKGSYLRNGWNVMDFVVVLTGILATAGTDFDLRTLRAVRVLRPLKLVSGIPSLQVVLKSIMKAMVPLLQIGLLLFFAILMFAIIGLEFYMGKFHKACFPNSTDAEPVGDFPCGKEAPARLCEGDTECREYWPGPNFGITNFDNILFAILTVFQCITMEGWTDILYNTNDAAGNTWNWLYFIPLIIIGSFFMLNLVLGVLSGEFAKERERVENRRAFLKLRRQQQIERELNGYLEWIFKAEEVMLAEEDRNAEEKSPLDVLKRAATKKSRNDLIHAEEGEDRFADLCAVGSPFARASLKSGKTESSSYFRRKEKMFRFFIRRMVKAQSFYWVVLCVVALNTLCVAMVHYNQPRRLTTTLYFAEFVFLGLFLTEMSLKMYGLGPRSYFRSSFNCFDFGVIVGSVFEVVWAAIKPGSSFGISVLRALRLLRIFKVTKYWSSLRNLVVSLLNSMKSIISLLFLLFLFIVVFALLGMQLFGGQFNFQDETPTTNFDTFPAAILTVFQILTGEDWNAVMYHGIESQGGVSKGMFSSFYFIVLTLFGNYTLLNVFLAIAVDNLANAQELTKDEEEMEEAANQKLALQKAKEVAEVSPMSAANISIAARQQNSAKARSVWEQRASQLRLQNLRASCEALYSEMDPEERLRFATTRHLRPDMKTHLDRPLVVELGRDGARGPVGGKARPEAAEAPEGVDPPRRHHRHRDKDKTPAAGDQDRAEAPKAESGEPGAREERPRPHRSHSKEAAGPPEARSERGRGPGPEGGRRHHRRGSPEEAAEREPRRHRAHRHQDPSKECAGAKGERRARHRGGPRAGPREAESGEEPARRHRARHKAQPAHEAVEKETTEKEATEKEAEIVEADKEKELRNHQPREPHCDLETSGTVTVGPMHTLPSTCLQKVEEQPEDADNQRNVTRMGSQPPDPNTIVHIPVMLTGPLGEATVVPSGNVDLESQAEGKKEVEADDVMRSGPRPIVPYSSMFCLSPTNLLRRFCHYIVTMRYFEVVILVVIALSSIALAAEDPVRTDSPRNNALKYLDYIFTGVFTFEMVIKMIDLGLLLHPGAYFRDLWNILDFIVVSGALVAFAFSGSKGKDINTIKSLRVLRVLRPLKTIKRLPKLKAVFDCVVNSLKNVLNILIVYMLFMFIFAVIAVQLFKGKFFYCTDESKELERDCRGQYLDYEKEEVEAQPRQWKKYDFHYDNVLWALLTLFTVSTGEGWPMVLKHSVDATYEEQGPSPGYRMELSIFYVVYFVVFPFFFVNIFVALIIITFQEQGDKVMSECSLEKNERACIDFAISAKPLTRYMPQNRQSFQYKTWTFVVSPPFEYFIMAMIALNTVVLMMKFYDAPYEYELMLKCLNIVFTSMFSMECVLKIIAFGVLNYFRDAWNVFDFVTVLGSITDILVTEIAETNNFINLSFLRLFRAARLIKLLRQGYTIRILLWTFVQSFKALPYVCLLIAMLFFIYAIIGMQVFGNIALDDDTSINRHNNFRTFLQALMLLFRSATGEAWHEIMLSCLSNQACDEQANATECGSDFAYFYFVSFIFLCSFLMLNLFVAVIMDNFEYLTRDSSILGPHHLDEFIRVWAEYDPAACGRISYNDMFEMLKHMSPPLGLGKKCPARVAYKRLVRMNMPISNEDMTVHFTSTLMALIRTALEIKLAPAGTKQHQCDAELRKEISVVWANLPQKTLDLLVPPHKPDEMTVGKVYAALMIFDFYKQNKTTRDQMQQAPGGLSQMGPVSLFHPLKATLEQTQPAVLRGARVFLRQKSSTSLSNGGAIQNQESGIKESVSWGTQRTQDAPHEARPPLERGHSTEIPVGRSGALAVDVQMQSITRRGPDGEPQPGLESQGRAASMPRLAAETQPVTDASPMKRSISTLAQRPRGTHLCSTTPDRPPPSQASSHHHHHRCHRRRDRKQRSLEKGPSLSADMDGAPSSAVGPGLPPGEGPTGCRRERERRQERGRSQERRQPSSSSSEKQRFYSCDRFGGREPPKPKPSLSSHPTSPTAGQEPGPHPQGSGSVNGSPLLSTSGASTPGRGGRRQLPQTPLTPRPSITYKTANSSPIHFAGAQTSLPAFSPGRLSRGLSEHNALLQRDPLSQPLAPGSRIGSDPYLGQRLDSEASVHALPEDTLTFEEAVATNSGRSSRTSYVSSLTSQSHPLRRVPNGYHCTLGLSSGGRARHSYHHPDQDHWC
T1 sequence (P54284 whole entry partner): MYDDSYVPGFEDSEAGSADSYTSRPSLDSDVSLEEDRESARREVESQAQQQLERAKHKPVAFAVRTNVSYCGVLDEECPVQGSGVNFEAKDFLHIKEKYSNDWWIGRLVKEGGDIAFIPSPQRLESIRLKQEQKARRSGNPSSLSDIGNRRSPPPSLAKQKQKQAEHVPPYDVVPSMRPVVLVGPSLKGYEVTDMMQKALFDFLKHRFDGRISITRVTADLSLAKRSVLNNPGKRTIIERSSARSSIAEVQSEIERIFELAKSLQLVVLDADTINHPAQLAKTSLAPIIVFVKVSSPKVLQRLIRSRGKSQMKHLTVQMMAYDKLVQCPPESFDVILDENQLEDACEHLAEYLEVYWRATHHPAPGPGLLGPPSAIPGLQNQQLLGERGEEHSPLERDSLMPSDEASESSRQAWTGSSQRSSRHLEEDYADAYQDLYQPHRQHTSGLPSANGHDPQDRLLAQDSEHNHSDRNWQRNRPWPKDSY
T1 sequence (P54289 25-946 partner limits assumed): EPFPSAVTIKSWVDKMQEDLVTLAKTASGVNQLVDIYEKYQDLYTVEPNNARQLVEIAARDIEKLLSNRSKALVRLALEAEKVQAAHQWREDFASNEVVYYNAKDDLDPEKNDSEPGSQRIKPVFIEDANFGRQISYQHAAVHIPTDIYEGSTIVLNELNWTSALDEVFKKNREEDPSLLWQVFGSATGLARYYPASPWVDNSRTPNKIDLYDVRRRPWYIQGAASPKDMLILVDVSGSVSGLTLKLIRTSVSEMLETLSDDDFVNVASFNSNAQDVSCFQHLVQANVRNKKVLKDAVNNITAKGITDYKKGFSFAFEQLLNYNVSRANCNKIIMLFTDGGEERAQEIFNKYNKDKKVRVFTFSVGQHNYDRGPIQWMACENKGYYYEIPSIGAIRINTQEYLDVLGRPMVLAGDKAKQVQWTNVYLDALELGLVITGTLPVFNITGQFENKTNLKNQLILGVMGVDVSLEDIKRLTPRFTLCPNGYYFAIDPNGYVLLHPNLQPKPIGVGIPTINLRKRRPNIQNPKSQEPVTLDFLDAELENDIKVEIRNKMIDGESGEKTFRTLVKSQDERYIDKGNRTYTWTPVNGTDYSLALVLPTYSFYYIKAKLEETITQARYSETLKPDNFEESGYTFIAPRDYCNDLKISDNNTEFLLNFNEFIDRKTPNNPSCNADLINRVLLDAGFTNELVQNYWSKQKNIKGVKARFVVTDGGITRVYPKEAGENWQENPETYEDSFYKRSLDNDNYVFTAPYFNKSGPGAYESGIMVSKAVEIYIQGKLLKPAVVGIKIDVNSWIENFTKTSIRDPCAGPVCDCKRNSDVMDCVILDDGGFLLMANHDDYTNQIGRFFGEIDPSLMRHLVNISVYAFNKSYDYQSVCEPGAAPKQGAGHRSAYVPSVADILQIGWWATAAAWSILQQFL
T1 sequence (P54289 947-1103 partner limits assumed): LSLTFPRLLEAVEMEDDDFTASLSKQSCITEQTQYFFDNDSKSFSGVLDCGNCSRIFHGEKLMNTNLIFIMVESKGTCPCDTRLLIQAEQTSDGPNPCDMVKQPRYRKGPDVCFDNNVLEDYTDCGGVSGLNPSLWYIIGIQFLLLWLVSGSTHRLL

Structure (SMILES) | pIC50 [1] | pIC50 [2]
CC(C)(C)C(=O)N(Cc1csc(N2CCCC2)n1)c1ccc(F)cc1 [Compound 77, N-(4-Fluorophenyl)-2,2-dimethyl-N-(2-pyrrolidin-1-yl-thiazol-4-ylmethyl)-propionamide] | 5.59 | 4.72
CC(C)(C)C(=O)N(Cc1ccc(NC2CC2)nc1)c1ccc(F)cc1 [Compound 78, N-(6-Cyclopropylamino-pyridin-3-ylmethyl)-N-(4-fluorophenyl)-2,2-dimethyl-propionamide] | 5.14 | 4.85
CN(c1ccc(F)cc1)c1nc(CN(C(=O)C(C)(C)C)c2ccc(F)cc2)cs1 [Compound 79, N-(4-Fluorophenyl)-N-{2-[(4-fluorophenyl)-methyl-amino]-thiazol-4-ylmethyl}-2,2-dimethyl-propionamide] | 7.00 | 6.52
COc1ccc(N(C)c2nc(CN(C(=O)C(C)(C)C)c3ccc(F)cc3)cs2)cc1 [Compound 80, N-(4-Fluorophenyl)-N-{2-[(4-methoxy-phenyl)-methyl-amino]-thiazol-4-ylmethyl}-2,2-dimethyl-propionamide] | 6.22 | 5.62
CN(c1ccc(F)cc1)c1nc(CN(C(=O)C(C)(C)C)c2ccc(F)cn2)cs1 [Compound 82, N-{2-[(4-Fluorophenyl)-methyl-amino]-thiazol-4-ylmethyl}-N-(5-fluoro-pyridin-2-yl)-2,2-dimethyl-propionamide] | 5.66 | 4.92
CN(C)c1ccc(N(Cc2csc(N3CCCCC3)n2)C(=O)C(C)(C)C)cc1 [Compound 86, N-(4-Dimethylamino-phenyl)-2,2-dimethyl-N-(2-piperidin-1-yl-thiazol-4-ylmethyl)-propionamide] | 5.51 | 4.90
CCN(c1ccc(CN(C(=O)C(C)(C)C)c2ccc(F)cc2)cc1)C1CC1 [Compound 87, N-[4-(Cyclopropyl(ethyl)amino)-benzyl]-N-(4-fluorophenyl)-2,2-dimethyl-propionamide] | 5.85 | 5.38
CCN(CC)c1ccc(N(Cc2csc(N(C)c3ccc(F)cc3)n2)C(=O)C(C)(C)C)cc1 [Compound 88, N-(4-Diethylamino-phenyl)-N-{2-[(4-fluorophenyl)-methyl-amino]-thiazol-4-ylmethyl}-2,2-dimethyl-propionamide] | 7.00 | 6.40
CN(C)c1ccc(N(Cc2csc(N(C)c3ccc(C(F)(F)F)cc3)n2)C(=O)C(C)(C)C)cc1 [Compound 89, N-(4-Dimethylamino-phenyl)-2,2-dimethyl-N-{2-[methyl-(4-trifluoromethyl-phenyl)-amino]-thiazol-4-ylmethyl}-propionamide] | 6.52 | 5.96
CCN(CC)c1ccc(CN(C(=O)C(C)(C)CC)c2ccc(N(C)C)cc2)cc1 [Compound 90, N-(4-Diethylaminobenzyl)-N-(4-dimethylamino-phenyl)-2,2-dimethyl-butyramide] | 6.10 | 5.66
CCN(CC)c1ccc(CN(C(=O)CCC(C)C)c2ccc(N(C)C)cc2)cc1 [Compound 91, 4-Methyl-pentanoic acid (4-Diethylaminobenzyl)-(4-dimethylamino-phenyl)-amide] | 6.22 | 6.00
CCN(c1cccc(CN(C(=O)C(C)(C)C)c2ccc(F)cc2)n1)C1CC1 [Compound 92, N-[6-(Cyclopropyl(ethyl)amino)-pyridin-2-ylmethyl]-N-(4-fluorophenyl)-2,2-dimethyl-propionamide] | 6.10 | 5.74
CCN(CC)c1ccc(CN(C(=O)/C=C/C(C)C)c2ccc(N(C)C)cc2)cc1 [Compound 94, 4-Methyl-pent-2-enoic acid (4-Diethylaminobenzyl)-(4-dimethylamino-phenyl)-amide] | 6.15 | 5.74
CCN(CC)c1nc(CN(C(=O)CCC(C)C)c2ccc(N(C)C)cc2)cs1 [Compound 95, 4-Methyl-pentanoic acid (2-diethylamino-thiazol-4-ylmethyl)-(4-dimethylamino-phenyl)-amide] | 5.64 | 5.10
CCN(CC)c1nc(CN(C(=O)C(C)(C)CC)c2ccc(N(C)C)cc2)cs1 [Compound 96, N-(2-Diethylamino-thiazol-4-ylmethyl)-N-(4-dimethyalmino-phenyl)-2,2-dimethyl-butyramide] | 5.96 | 5.35
CCN(CC)c1ccc(N(Cc2cccc(N(CC)C3CC3)c2)C(=O)C(C)(C)C)cc1 [Compound 97, N-[3-(Cyclopropyl(ethyl)amino)-benzyl]-N-(4-diethylamino-phenyl)-2,2-dimethyl-propionamide] | 6.40 | 5.96
CCN(CC)c1ccc(CN(C(=O)CCC(C)C)c2ccc(N)cc2)cc1 [Compound 98, 4-Methyl-pentanoic acid (4-aminophenyl)-(4-Diethylaminobenzyl)-amide] | 5.72 | 5.28
CCN(CC)c1ccc(CN(C(=O)CCC(C)C)c2ccc(NC)cc2)cc1 [Compound 99, 4-Methyl-pentanoic acid (4-Diethylaminobenzyl)-(4-methylamino-phenyl)-amide] | > 7.00 | 5.37
CCN(c1ccc(CN(C(=O)C(C)(C)C)c2ccc(N(C)C)cc2)cn1)C1CC1 [Compound 100, N-[6-(Cycloproyl(ethyl)amino)-pyridin-3-ylmethyl]-N-(4-dimethylamino-phenyl)-2,2-dimethyl-propionamide] | 5.37 | 5.10
CC(C)(C)OC(=O)N(Cc1csc(-c2ccncc2)n1)c1ccc(F)cc1 [Compound 101, (4-Fluorophenyl)-(2-pyridin-4-yl-thiazol-4-ylmethyl)-carabamic acid tert-butyl ester] | 5.08 | –
CN1CCN(c2ncc(CN(C(=O)OC(C)(C)C)c3ccc(F)cc3)s2)CC1 [Compound 102, (4-Fluorophenyl)-[2-(4-methyl-piperazin-1-yl)-thiazol-5-ylmethyl]-carbamic acid tert-butyl ester] | 5.02 | –
O=C(C1CC1)N(Cc1csc(N2CCCCC2)n1)c1ccc(F)cc1 [Compound 107, Cyclopropanecarboxylic acid (4-fluorophenyl)-(2-piperidin-1-yl-thiazol-4-ylmethyl)-amide] | 5.60 | 4.95
O=C(C1CCCCC1)N(Cc1csc(N2CCOCC2)n1)c1ccc(F)cc1 [Compound 108, Cyclohexanecarboxylic acid (4-fluorophenyl)-(2-morpholin-4-yl-thiazol-4-ylmethyl)-amide] | 5.41 | 4.85
O=C(C1CCCO1)N(Cc1ccc(N2CCN(c3ccccn3)CC2)nc1)c1ccc(F)cc1 (centres unmarked) [Compound 109, Tetrahydro-furan-2-carboxylic acid (4-fluorophenyl)-[6-(4-pyridin-2-yl-piperazin-1-yl)-pyridin-3-ylmethyl]-amide] | 5.59 | 4.86
CN(c1ccc(F)cc1)c1nc(CN(C(=O)C2CCCN2C)c2ccc(F)cc2)cs1 (centres unmarked) [Compound 114, 1-Methyl-pyrrolidine-2-carboxylic acid (4-fluroophenyl)-{2-[(4-fluorophenyl)-methyl-amino]-thiazol-4-ylmethyl]-amide] | 5.68 | 5.32
CCN(c1ccc(CN(C(=O)C2CCCN2Cc2ccccc2)c2ccc(F)cc2)cn1)C1CC1 (centres unmarked) [Compound 115, 1-Benzyl-pyrrolidine-2-carboxylic acid [6-(Cyclopropyl(ethyl)amino)-pyridin-3-ylmethyl]-(4-fluorophenyl)-amide] | 6.22 | 5.57
